Biological target: T1, TPARED (Comamonas sp., UniProt Q3C1E0)
T1 sequence (Q3C1E0 1-336): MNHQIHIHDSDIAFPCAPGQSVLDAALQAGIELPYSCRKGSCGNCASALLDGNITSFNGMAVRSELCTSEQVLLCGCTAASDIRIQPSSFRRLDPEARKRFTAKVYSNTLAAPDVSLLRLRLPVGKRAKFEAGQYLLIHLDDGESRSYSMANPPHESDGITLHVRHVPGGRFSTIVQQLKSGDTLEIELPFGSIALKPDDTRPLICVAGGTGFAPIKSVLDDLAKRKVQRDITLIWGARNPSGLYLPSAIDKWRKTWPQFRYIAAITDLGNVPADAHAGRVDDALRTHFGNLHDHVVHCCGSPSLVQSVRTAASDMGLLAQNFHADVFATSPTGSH
Test: FAD released by acid denaturation, UV/vis at […] nm
Assay type: binding
Conditions: as purified, three purifications

equivalents of FAD per protein: 0.95 ± 0.08 equivalents
Structure (SMILES): Cc1cc2nc3c(=O)[nH]c(=O)nc-3n(C[C@H](O)[C@H](O)[C@H](O)COP(=O)(O)OP(=O)(O)OC[C@H]3O[C@@H](n4cnc5c(N)ncnc54)[C@H](O)[C@@H]3O)c2cc1C [FAD]
